Laboratory results published in ChEMBL document CHEMBL3352214, “Studies on indolizines. Evaluation of their biological properties as microtubule-interacting agents and as melanoma targeting compounds” (Eur J Med Chem, 2015).

Tests used:
A498 [1] = test: Growth inhibition of human A498 cells after 48 hrs by SRB assay; type: functional; settings: A498, 48 h
HL-60(TB) [2] = test: Growth inhibition of human HL-60(TB) cells at 10^-5 M after 48 hrs by SRB assay; type: functional; settings: HL-60, 48 h, read-out: GI
CAKI-1 = test: Growth inhibition of human Caki1 cells at 10^-5 M after 48 hrs by SRB assay; type: functional; settings: CAKI-1, 48 h, read-out: GI
K562 = test: Growth inhibition of human K562 cells after 48 hrs by SRB assay; type: functional; settings: K562, 48 h
[3] = Growth inhibition of human HCT15 cells at 10^-5 M after 48 hrs by SRB assay; type: functional; settings: HCT-15, 48 h, read-out: GI
[4] = Growth inhibition of human MOLT4 cells at 10^-5 M after 48 hrs by SRB assay; type: functional; settings: MOLT-4, 48 h, read-out: GI
T47D = test: Growth inhibition of human T47D cells at 10^-5 M after 48 hrs by SRB assay; type: functional; settings: Homo sapiens, T47D, 48 h; read-out: GI
[5] = Growth inhibition of human PC3 cells at 10^-5 M after 48 hrs by SRB assay; type: functional; settings: PC-3, 48 h, read-out: GI
[6] = Growth inhibition of human OVCAR3 cells after 48 hrs by SRB assay; type: functional; settings: OVCAR-3, 48 h
SF-295 = test: Cytotoxicity against human SF295 cells assessed as cell growth at 10^-5 M after 48 hrs by SRB assay; type: functional; settings: SF-295, 48 h, read-out: Activity
NCI-H522 [7] = test: Cytotoxicity against human NCI-H522 cells assessed as cell growth at 10^-5 M after 48 hrs by SRB assay; type: functional; settings: NCI-H522, 48 h, read-out: Activity
MDA-MB-435 [8] = test: Cytotoxicity against human MDA-MB-435 cells assessed as cell growth at 10^-5 M after 48 hrs by SRB assay; type: functional; settings: MDA-MB-435, 48 h, read-out: Activity
SK-MEL-5 = test: Growth inhibition of human SK-MEL-5 cells after 48 hrs by SRB assay; type: functional; settings: SK-MEL-5, 48 h
[9] = Growth inhibition of human SF295 cells at 10^-5 M after 48 hrs by SRB assay; type: functional; settings: SF-295, 48 h, read-out: GI
MDA-MB-435 [10] = test: Growth inhibition of human MDA-MB-435 cells after 48 hrs by SRB assay; type: functional; settings: MDA-MB-435, 48 h
SNB-75 [11] = test: Growth inhibition of human SNB75 cells after 48 hrs by SRB assay; type: functional; settings: SNB-75, 48 h
HL-60(TB) [12] = test: Cytotoxicity against human HL-60(TB) cells assessed as cell growth at 10^-5 M after 48 hrs by SRB assay; type: functional; settings: HL-60, 48 h, read-out: Activity
MDA-MB-435 [13] = test: Growth inhibition of human MDA-MB-435 cells at 10^-5 M after 48 hrs by SRB assay; type: functional; settings: MDA-MB-435, 48 h, read-out: GI
MCF7 [14] = test: Growth inhibition of human MCF7 cells after 48 hrs by SRB assay; type: functional; settings: MCF7, 48 h
Malme-3M = test: Growth inhibition of human MALME-3M cells at 10^-5 M after 48 hrs by SRB assay; type: functional; settings: read-out: GI
[15] = Growth inhibition of human EKVX cells at 10^-5 M after 48 hrs by SRB assay; type: functional; settings: read-out: GI
HT-29 = test: Growth inhibition of human HT-29 cells after 48 hrs by SRB assay; type: functional; settings: HT-29, 48 h
[16] = Growth inhibition of human HOP92 cells at 10^-5 M after 48 hrs by SRB assay; type: functional; settings: HOP-92, 48 h, read-out: GI
A498 [17] = test: Growth inhibition of human A498 cells at 10^-5 M after 48 hrs by SRB assay; type: functional; settings: A498, 48 h, read-out: GI
KM12 = test: Growth inhibition of human KM12 cells after 48 hrs by SRB assay; type: functional; settings: KM12, 48 h
[18] = Growth inhibition of human COLO205 cells after 48 hrs by SRB assay; type: functional; settings: COLO 205, 48 h
SNB-75 [19] = test: Growth inhibition of human SNB75 cells at 10^-5 M after 48 hrs by SRB assay; type: functional; settings: SNB-75, 48 h, read-out: GI
MDA-MB-468 = test: Growth inhibition of human MDA-MB-468 cells after 48 hrs by SRB assay; type: functional; settings: MDA-MB-468, 48 h
NCI-H522 [20] = test: Growth inhibition of human NCI-H522 cells after 48 hrs by SRB assay; type: functional; settings: NCI-H522, 48 h
HL-60(TB) [21] = test: Growth inhibition of human HL-60(TB) cells after 48 hrs by SRB assay; type: functional; settings: HL-60, 48 h
NCI-H522 [22] = test: Growth inhibition of human NCI-H522 cells at 10^-5 M after 48 hrs by SRB assay; type: functional; settings: NCI-H522, 48 h, read-out: GI
NCI/ADR-RES = test: Growth inhibition of human NCI/ADR-RES cells after 48 hrs by SRB assay; type: functional
[23] = Growth inhibition of human HCT116 cells at 10^-5 M after 48 hrs by SRB assay; type: functional; settings: HCT-116, 48 h, read-out: GI
MCF7 [24] = test: Growth inhibition of human MCF7 cells at 10^-5 M after 48 hrs by SRB assay; type: functional; settings: MCF7, 48 h, read-out: GI
A498 [25] = test: Cytotoxicity against human A498 cells assessed as cell growth at 10^-5 M after 48 hrs by SRB assay; type: functional; settings: A498, 48 h, read-out: Activity
[26] = Inhibition of sheep brain tubulin polymerization by fluorescence assay; set-up: species or system Ovis aries
SR = test: Growth inhibition of human SR cells after 48 hrs by SRB assay; type: functional
[27] = Growth inhibition of human PC3 cells after 48 hrs by SRB assay; type: functional; settings: PC-3, 48 h
Ovis aries = organism: Ovis aries; test: Inhibition of sheep brain tubulin polymerization at 100 uM by fluorescence assay

## CCOC(=O)c1cc(C(=O)c2cc(OC)c(OC)c(OC)c2)n2c(C)cccc12
A498 [1]
  GI50: 52 nM
HL-60(TB) [2]
  inhibition of growth at 10 µM: 100%
CAKI-1
  inhibition of growth at 10 µM: 63%
K562
  GI50: 53 nM
[3]
  inhibition of growth at 10 µM: 78%
[4]
  inhibition of growth at 10 µM: 96%
T47D
  inhibition of growth at 10 µM: 63%
[5]
  inhibition of growth at 10 µM: 77%
[6]
  GI50: 40 nM
SF-295
  growth at 10 µM: -32%
NCI-H522 [7]
  growth at 10 µM: -32%
MDA-MB-435 [8]
  growth at 10 µM: -48%
SK-MEL-5
  GI50: 61 nM
[9]
  inhibition of growth at 10 µM: 100%
MDA-MB-435 [10]
  GI50: 30 nM
SNB-75 [11]
  GI50: 121 nM
HL-60(TB) [12]
  growth at 10 µM: -42%
MDA-MB-435 [13]
  inhibition of growth at 10 µM: 100%
MCF7 [14]
  GI50: 56 nM
Malme-3M
  inhibition of growth at 10 µM: 63%
[15]
  inhibition of growth at 10 µM: 57%
HT-29
  GI50: 40 nM
[16]
  inhibition of growth at 10 µM: 26%
A498 [17]
  inhibition of growth at 10 µM: 100%
KM12
  GI50: 60 nM
[18]
  GI50: 108 nM
SNB-75 [19]
  inhibition of growth at 10 µM: 88%
MDA-MB-468
  GI50: 111 nM
NCI-H522 [20]
  GI50: 66 nM
HL-60(TB) [21]
  GI50: 34 nM
NCI-H522 [22]
  inhibition of growth at 10 µM: 100%
NCI/ADR-RES
  GI50: 65 nM
[23]
  inhibition of growth at 10 µM: 91%
MCF7 [24]
  inhibition of growth at 10 µM: 86%
A498 [25]
  growth at 10 µM: -3%
[26]
  IC50: 8020 nM
SR
  GI50: 33 nM
[27]
  GI50: 122 nM
Ovis aries
  inhibition: 83%

## CCOC(=O)c1cc(C(=O)c2cc(OC)c(OC)c(OC)c2Br)n2ccc(OC)cc12
HL-60(TB) [2]
  inhibition of growth at 10 µM: 57%
CAKI-1
  inhibition of growth at 10 µM: 51%
[3]
  inhibition of growth at 10 µM: 39%
[4]
  inhibition of growth at 10 µM: 60%
T47D
  inhibition of growth at 10 µM: 36%
[5]
  inhibition of growth at 10 µM: 60%
[9]
  inhibition of growth at 10 µM: 38%
MDA-MB-435 [13]
  inhibition of growth at 10 µM: 10%
Malme-3M
  inhibition of growth at 10 µM: 0%
[15]
  inhibition of growth at 10 µM: 52%
[16]
  inhibition of growth at 10 µM: 39%
A498 [17]
  inhibition of growth at 10 µM: 23%
SNB-75 [19]
  inhibition of growth at 10 µM: 0%
NCI-H522 [22]
  inhibition of growth at 10 µM: 35%
[23]
  inhibition of growth at 10 µM: 31%
MCF7 [24]
  inhibition of growth at 10 µM: 7%
[26]
  IC50: 104000 nM
Ovis aries
  inhibition: 54%

## COc1cc([C@@H]2c3cc4c(cc3C[C@H]3COC(=O)[C@@H]32)OCO4)cc(OC)c1OC [DESOXYPODOPHYLLOTOXIN]
[26]
  IC50: 1760 nM
Ovis aries
  inhibition: 100%
